Test results as given in patent publication US20110136666A1, “CHEMICAL COMPOUNDS” (SYNGENTA CROP PROTECTION, INC., priority 2008, published 2011).

What was measured:
Type in all cases: in vivo
Setaria faberi (SETFA) [1] = assay: Post-emergence biological efficacy, glasshouse pot test; conditions: 312 h, after 13 days, 100=total damage, 0=no damage, read-out: Percentage damage caused to weed species SETFA
Experimental: (§1) Seeds of Alopecurus myosuroides (ALOMY), Setaria faberi (SETFA), Echinochloa crus-galli (ECHCG), Solanum nigrum (SOLNI), Amaranthus retroflexus (AMARE) and Ipomea hederaceae (IPOHE) were sown in standard soil in pots. After cultivation for 8 days under controlled conditions in a glasshouse (at 24/16° C., day/night; 14 hours light; 65% humidity), the plants were sprayed with an aqueous spray solution derived from the formulation of the technical active ingredient in acetone/water (50:50) solution containing 0.5% Tween 20 (polyoxyethylene sorbitan monolaurate, CAS RN 9005-64-5) to give a final dose of 250 or 1000 g/ha of test compound.
(§2) The test plants were then grown on under controlled conditions in a glasshouse (at 24/16° C., day/night; 14 hours light; 65% humidity) and watered twice daily. After 13 days the test was evaluated (100=total damage to plant; 0=no damage to plant).

[2] = tested on: Alopecurus myosuroides (ALOMY); assay: as above; conditions: 312 h, after 13 days, 100=total damage, 0=no damage, read-out: Percentage damage caused to weed species ALOMY
Experimental: as §1, §2

Solanum nigrum (SOLNI) [3] = assay: as above; conditions: 312 h, after 13 days, 100=total damage, 0=no damage, read-out: Percentage damage caused to weed species SOLNI
Experimental: as §1, §2

[4] = tested on: Amaranthus retroflexus (AMARE); assay: as above; conditions: 312 h, after 13 days, 100=total damage, 0=no damage, read-out: Percentage damage caused to weed species AMARE
Experimental: as §1, §2

[5] = tested on: Ipomea hederaceae (IPOHE); assay: as above; conditions: Ipomoea hederacea, 312 h, after 13 days, 100=total damage, 0=no damage, read-out: Percentage damage caused to weed species IPONE
Experimental: as §1, §2

[6] = tested on: Echinochloa crus-galli (ECHCG); assay: as above; conditions: 312 h, after 13 days, 100=total damage, 0=no damage, read-out: Percentage damage caused to weed species ECHCG
Experimental: as §1, §2

Setaria faberi (SETFA) [7] = assay: Pre-emergence biological efficacy, glasshouse pot test; conditions: 312 h, after 13 days, 100=total damage, 0=no damage, read-out: Percentage damage caused to weed species SETFA
Experimental: as §1, with “one day” for “8 days”
(§3) The test plants were then grown under controlled conditions in the glasshouse (at 24/16° C., day/night; 14 hours light; 65% humidity) and watered twice daily. After 13 days the test was evaluated (100=total damage to plant; 0=no damage to plant).

[8] = tested on: Alopecurus myosuroides (ALOMY); assay: as above; conditions: 312 h, after 13 days, 100=total damage, 0=no damage, read-out: Percentage damage caused to weed species ALOMY
Experimental: as §1, with “one day” for “8 days”
as §3

Solanum nigrum (SOLNI) [9] = assay: as above; conditions: 312 h, after 13 days, 100=total damage, 0=no damage, read-out: Percentage damage caused to weed species SOLNI
Experimental: as §1, with “one day” for “8 days”
as §3

[10] = tested on: Amaranthus retroflexus (AMARE); assay: as above; conditions: 312 h, after 13 days, 100=total damage, 0=no damage, read-out: Percentage damage caused to weed species AMARE
Experimental: as §1, with “one day” for “8 days”
as §3

[11] = tested on: Ipomea hederaceae (IPOHE); assay: as above; conditions: Ipomoea hederacea, 312 h, after 13 days, 100=total damage, 0=no damage, read-out: Percentage damage caused to weed species IPOHE
Experimental: as §1, with “one day” for “8 days”
as §3

[12] = tested on: Echinochloa crus-galli (ECHCG); assay: as above; conditions: 312 h, after 13 days, 100=total damage, 0=no damage, read-out: Percentage damage caused to weed species ECHCG
Experimental: as §1, with “one day” for “8 days”
as §3

Compound: COC(=O)c1nc(-c2cc3ccccc3s2)nc(N)c1Cl [Compound 2-54, 4-Amino-2-(benzothiophen-2-yl)-5-chloro-6-methoxycarbonyl pyrimidine]
- pest or weed control at 1000 g/ha (Setaria faberi (SETFA) [1]): 50%
- pest or weed control at 1000 g/ha [2]: 0%
- pest or weed control at 1000 g/ha (Solanum nigrum (SOLNI) [3]): 40%
- pest or weed control at 1000 g/ha [4]: 70%
- pest or weed control at 1000 g/ha [5]: 80%
- pest or weed control at 1000 g/ha [6]: 70%
- pest or weed control at 1000 g/ha (Setaria faberi (SETFA) [7]): 20%
- pest or weed control at 1000 g/ha [8]: 20%
- pest or weed control at 1000 g/ha (Solanum nigrum (SOLNI) [9]): 20%
- pest or weed control at 1000 g/ha [10]: 70%
- pest or weed control at 1000 g/ha [11]: 0%
- pest or weed control at 1000 g/ha [12]: 70%

Compound: COC(=O)c1nc(-c2cc3cc(C)ccc3s2)nc(N)c1Cl [Compound 2-55, 4-Amino-5-chloro-6-methoxycarbonyl-2-(5-methylbenzothiophen-2-yl)-pyrimidine]
- pest or weed control at 250 g/ha (Setaria faberi (SETFA) [1]): 0%
- pest or weed control at 250 g/ha [2]: 10%
- pest or weed control at 250 g/ha (Solanum nigrum (SOLNI) [3]): 30%
- pest or weed control at 250 g/ha [4]: 70%
- pest or weed control at 250 g/ha [5]: 40%
- pest or weed control at 250 g/ha [6]: 0%
- pest or weed control at 250 g/ha (Setaria faberi (SETFA) [7]): 0%
- pest or weed control at 250 g/ha [8]: 0%
- pest or weed control at 250 g/ha (Solanum nigrum (SOLNI) [9]): 0%
- pest or weed control at 250 g/ha [10]: 10%
- pest or weed control at 250 g/ha [11]: 10%
- pest or weed control at 250 g/ha [12]: 0%

Compound: COC(=O)c1nc(-c2csc3ccccc23)nc(N)c1Cl [Compound 2-56, 4-Amino-2-(benzothiophen-3-yl)-5-chloro-6-methoxycarbonyl pyrimidine]
- pest or weed control at 1000 g/ha (Setaria faberi (SETFA) [1]): 10%
- pest or weed control at 1000 g/ha [2]: 20%
- pest or weed control at 1000 g/ha (Solanum nigrum (SOLNI) [3]): 40%
- pest or weed control at 1000 g/ha [4]: 100%
- pest or weed control at 1000 g/ha [5]: 20%
- pest or weed control at 1000 g/ha [6]: 40%
- pest or weed control at 1000 g/ha (Setaria faberi (SETFA) [7]): 0%
- pest or weed control at 1000 g/ha [8]: 0%
- pest or weed control at 1000 g/ha (Solanum nigrum (SOLNI) [9]): 0%
- pest or weed control at 1000 g/ha [10]: 60%
- pest or weed control at 1000 g/ha [11]: 0%
- pest or weed control at 1000 g/ha [12]: 0%

Compound: COC(=O)c1nc(-c2csc3ccc(C)cc23)nc(N)c1Cl [Compound 2-57, 4-amino-5-chloro-6-methoxycarbonyl-2-(5-methylbenz-[b]thiophen-3-yl)-pyrimidine]
- pest or weed control at 1000 g/ha (Setaria faberi (SETFA) [1]): 0%
- pest or weed control at 1000 g/ha [2]: 0%
- pest or weed control at 1000 g/ha (Solanum nigrum (SOLNI) [3]): 0%
- pest or weed control at 1000 g/ha [4]: 0%
- pest or weed control at 1000 g/ha [5]: 20%
- pest or weed control at 1000 g/ha [6]: 0%
- pest or weed control at 1000 g/ha (Setaria faberi (SETFA) [7]): 0%
- pest or weed control at 1000 g/ha [8]: 0%
- pest or weed control at 1000 g/ha (Solanum nigrum (SOLNI) [9]): 0%
- pest or weed control at 1000 g/ha [10]: 0%
- pest or weed control at 1000 g/ha [11]: 0%
- pest or weed control at 1000 g/ha [12]: 0%

Compound: COC(=O)c1nc(-c2c(C)n[nH]c2C)nc(N)c1Cl [Compound 2-72, 4-Amino-5-chloro-2-(3,5-dimethylpyrazol-4-yl)-6-methoxycarbonyl pyrimidine]
- pest or weed control at 250 g/ha (Setaria faberi (SETFA) [1]): 0%
- pest or weed control at 250 g/ha [2]: 0%
- pest or weed control at 250 g/ha (Solanum nigrum (SOLNI) [3]): 0%
- pest or weed control at 250 g/ha [4]: 0%
- pest or weed control at 250 g/ha [5]: 0%
- pest or weed control at 250 g/ha [6]: 0%
- pest or weed control at 250 g/ha (Setaria faberi (SETFA) [7]): 0%
- pest or weed control at 250 g/ha [8]: 0%
- pest or weed control at 250 g/ha (Solanum nigrum (SOLNI) [9]): 0%
- pest or weed control at 250 g/ha [10]: 0%
- pest or weed control at 250 g/ha [11]: 0%
- pest or weed control at 250 g/ha [12]: 0%

Compound: COC(=O)c1nc(-c2ncc3ccccn23)nc(N)c1Cl [Compound 2-146, 4-Amino-5-chloro-2-(imidazo[1,5-a]pyridin-3-yl)-6-methoxycarbonyl pyrimidine]
- pest or weed control at 250 g/ha (Setaria faberi (SETFA) [1]): 0%
- pest or weed control at 250 g/ha [2]: 0%
- pest or weed control at 250 g/ha (Solanum nigrum (SOLNI) [3]): 30%
- pest or weed control at 250 g/ha [4]: 30%
- pest or weed control at 250 g/ha [5]: 40%
- pest or weed control at 250 g/ha [6]: 0%
- pest or weed control at 250 g/ha (Setaria faberi (SETFA) [7]): 0%
- pest or weed control at 250 g/ha [8]: 0%
- pest or weed control at 250 g/ha (Solanum nigrum (SOLNI) [9]): 0%
- pest or weed control at 250 g/ha [10]: 0%
- pest or weed control at 250 g/ha [11]: 0%
- pest or weed control at 250 g/ha [12]: 0%

Compound: COC(=O)c1nc(-c2cccnc2)nc(N)c1Cl [Compound 2-153, 4-Amino-5-chloro-6-methoxycarbonyl-2-pyridin-3-ylpyrimidine]
- pest or weed control at 1000 g/ha (Setaria faberi (SETFA) [1]): 0%
- pest or weed control at 1000 g/ha [2]: 0%
- pest or weed control at 1000 g/ha (Solanum nigrum (SOLNI) [3]): 0%
- pest or weed control at 1000 g/ha [4]: 0%
- pest or weed control at 1000 g/ha [5]: 0%
- pest or weed control at 1000 g/ha [6]: 0%
- pest or weed control at 1000 g/ha (Setaria faberi (SETFA) [7]): 0%
- pest or weed control at 1000 g/ha [8]: 0%
- pest or weed control at 1000 g/ha (Solanum nigrum (SOLNI) [9]): 0%
- pest or weed control at 1000 g/ha [10]: 0%
- pest or weed control at 1000 g/ha [11]: 0%
- pest or weed control at 1000 g/ha [12]: 0%

Compound: COC(=O)c1nc(-c2cccnc2OC)nc(N)c1Cl [Compound 2-154, 4-Amino-5-chloro-6-methoxycarbonyl-2-(2-methoxypyridin-3-yl)-pyrimidine]
- pest or weed control at 1000 g/ha (Setaria faberi (SETFA) [1]): 0%
- pest or weed control at 1000 g/ha [2]: 0%
- pest or weed control at 1000 g/ha (Solanum nigrum (SOLNI) [3]): 30%
- pest or weed control at 1000 g/ha [4]: 70%
- pest or weed control at 1000 g/ha [5]: 20%
- pest or weed control at 1000 g/ha [6]: 0%
- pest or weed control at 1000 g/ha (Setaria faberi (SETFA) [7]): 0%
- pest or weed control at 1000 g/ha [8]: 0%
- pest or weed control at 1000 g/ha (Solanum nigrum (SOLNI) [9]): 20%
- pest or weed control at 1000 g/ha [10]: 0%
- pest or weed control at 1000 g/ha [11]: 0%
- pest or weed control at 1000 g/ha [12]: 0%

Compound: COC(=O)c1nc(-c2ccc(OC)nc2)nc(N)c1Cl [Compound 2-155, 4-Amino-5-chloro-6-methoxycarbonyl-2-(2-methoxypyridin-5-yl)-pyrimidine]
- pest or weed control at 1000 g/ha (Setaria faberi (SETFA) [1]): 80%
- pest or weed control at 1000 g/ha [2]: 0%
- pest or weed control at 1000 g/ha (Solanum nigrum (SOLNI) [3]): 70%
- pest or weed control at 1000 g/ha [4]: 100%
- pest or weed control at 1000 g/ha [5]: 70%
- pest or weed control at 1000 g/ha [6]: 80%
- pest or weed control at 1000 g/ha (Setaria faberi (SETFA) [7]): 0%
- pest or weed control at 1000 g/ha [8]: 0%
- pest or weed control at 1000 g/ha (Solanum nigrum (SOLNI) [9]): 20%
- pest or weed control at 1000 g/ha [10]: 20%
- pest or weed control at 1000 g/ha [11]: 0%
- pest or weed control at 1000 g/ha [12]: 0%

Compound: COC(=O)c1nc(-c2ccc(Cl)nc2)nc(N)c1Cl [Compound 2-156, 4-Amino-5-chloro-2-(2-chloropyridin-5-yl)-6-methoxycarbonyl pyrimidine]
- pest or weed control at 1000 g/ha (Setaria faberi (SETFA) [1]): 40%
- pest or weed control at 1000 g/ha [2]: 40%
- pest or weed control at 1000 g/ha (Solanum nigrum (SOLNI) [3]): 80%
- pest or weed control at 1000 g/ha [4]: 100%
- pest or weed control at 1000 g/ha [5]: 70%
- pest or weed control at 1000 g/ha [6]: 30%
- pest or weed control at 1000 g/ha (Setaria faberi (SETFA) [7]): 0%
- pest or weed control at 1000 g/ha [8]: 0%
- pest or weed control at 1000 g/ha (Solanum nigrum (SOLNI) [9]): 60%
- pest or weed control at 1000 g/ha [10]: 70%
- pest or weed control at 1000 g/ha [11]: 0%
- pest or weed control at 1000 g/ha [12]: 0%
